Test results: patent US10300071B2, “Compositions and methods for inhibition of mycobacteria” (priority 2014, dated 2019)
Converted amounts (≈) assume the structure as drawn. Like-named read-outs stand apart in the source and are kept apart here.

Columns and labels:
Mtb AccD6 = Mtb AccD6 (Mycobacterium tuberculosis, UniProt P9WQH5); assay: biochemical; assay type: biochemical; settings: for IC50: 300 μM malonyl-CoA, inhibitor 10 μM to 2000 μM; for inhibition at 20 µM: read-out: inhibition at 20 uM
Sequence of Mtb AccD6 (P9WQH5 whole entry, looked up): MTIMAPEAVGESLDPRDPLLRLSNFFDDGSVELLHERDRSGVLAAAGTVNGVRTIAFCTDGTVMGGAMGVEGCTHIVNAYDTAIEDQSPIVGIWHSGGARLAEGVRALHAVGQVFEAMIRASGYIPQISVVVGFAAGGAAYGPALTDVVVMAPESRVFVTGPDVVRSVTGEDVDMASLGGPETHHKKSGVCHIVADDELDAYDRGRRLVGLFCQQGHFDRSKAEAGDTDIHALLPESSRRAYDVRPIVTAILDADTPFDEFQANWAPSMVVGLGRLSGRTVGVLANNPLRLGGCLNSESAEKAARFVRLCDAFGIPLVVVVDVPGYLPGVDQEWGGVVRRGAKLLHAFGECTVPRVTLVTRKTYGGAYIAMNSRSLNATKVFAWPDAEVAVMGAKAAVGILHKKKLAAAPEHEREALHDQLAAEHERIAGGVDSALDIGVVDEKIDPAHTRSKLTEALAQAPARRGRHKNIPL

Mtb strain mc^2-7000 = assay: microbe, parasite or virus in culture; assay type: cell-based, Mycobacterium tuberculosis; settings: 6 days incubation at 37° C., resazurin, read on the 7th day
[1] = Mycobacterium tuberculosis, 144 h, read-out: MIC

SMILES | IC50 (Mtb AccD6; read-out: IC50) [nM] | MIC (Mtb strain mc^2-7000; [1]) [µM] | concentrations at which not toxic, s. cerevisiae cytotoxicity (S. cerevisiae) [µM] | concentrations at which not toxic, human fibroblast cytotoxicity (human fibroblast) [µM] | IC50 (Mtb AccD6) | inhibition at 20 µM (Mtb AccD6) [%] | MIC (Mtb strain mc^2-7000)
CC(C(=O)O)c1ccc(Oc2cnc3cc(Cl)ccc3n2)cc1 (centres unmarked) [NZ-309, 2-{4-[(6-chloroquinoxalin-2-yl)oxy]phenyl}propanoic acid] | 172 | 12 (≈ 3.95 µg/mL) | ≥ 100 | ≥ 100 |  |  | 
CC(C)NC(=O)Nc1ccc(Oc2nc3ccc(S(C)(=O)=O)cc3s2)cc1 [NZ-380, 1-{4-[(6-methanesulfonyl-1,3-benzothiazol-2-yl)oxy]phenyl}-3-(propan-2-yl)urea] |  | 3.4 (≈ 1.38 µg/mL) | ≥ 100 | ≥ 100 | Not Active |  | 
CC(C(=O)N1CCNCC1)c1ccc(Oc2nc3ccc(Cl)cc3s2)cc1 (centres unmarked) [NZ-364, 2-{4-[(6-chloro-1,3-benzothiazol-2-yl)oxy]phenyl}-1-(piperazin-1-yl)propan-1-one] |  | 1.34 (≈ 0.539 µg/mL) | ≥ 100 | ≥ 100 |  | 20 | 
CNC(=O)Cc1ccc(Oc2nc3ccc(F)cc3s2)cc1O [NZ-395, 2-{4-[(6-fluoro-1,3-benzothiazol-2-yl)oxy]-2-hydroxyphenyl}-N-methylacetamide] | 160 | 0.6 to 0.9 (≈ 0.199 to 0.299 µg/mL) | ≥ 100 | ≥ 100 |  |  | 
CONC(=O)C(C)c1ccc(Oc2nc3ccc(F)cc3s2)cc1 (racemic) [NZ-330, 2-{4-[(6-fluoro-1,3-benzothiazol-2-yl)oxy]phenyl}-N-methoxypropanamide] | 240 | 1.5 (≈ 0.52 µg/mL) | ≥ 100 | ≥ 100 |  |  | 
COC(=O)Cc1ccc(Oc2nc3ccc(F)cc3s2)cc1 [NZ-294, methyl 2-{4-[(6-fluoro-1,3-benzothiazol-2-yl)oxy]phenyl}acetate] | 12500 | 3 | ≥ 100 | ≥ 100 |  |  | 
O=C(O)Cc1ccc(Oc2nc3ccc(Cl)cc3s2)cc1 [NZ-287, 2-{4-[(6-chloro-1,3-benzothiazol-2-yl)oxy]phenyl}acetic acid] | 520 | 12 (≈ 3.84 µg/mL) | ≥ 100 | ≥ 100 |  |  | 
CC(C)NC(=O)Nc1ccc(Oc2nc3cc(F)c(F)cc3s2)cc1 [NZ-382, 1-{4-[(5,6-difluoro-1,3-benzothiazol-2-yl)oxy]phenyl}-3-(propan-2-yl)urea] | 270 to 350 |  | 50 to 100 | ≥ 100 |  |  | Not Active
COC(=O)C(C)c1ccc(Oc2nc3ccc(F)cc3s2)cc1 (centres unmarked) [NZ-328, methyl 2-{4-[(6-fluoro-1,3-benzothiazol-2-yl)oxy]phenyl}propanoate] | 10000 | 12 (≈ 3.98 µg/mL) | ≥ 100 | ≥ 100 |  |  | 
CC(C)NC(=O)Nc1ccc(Oc2ccc3cc(Cl)ccc3n2)cc1 [NZ-346, 1-{4-[(6-chloroquinolin-2-yl)oxy]phenyl}-3-(propan-2-yl)urea] | 400 | 50 (≈ 17.8 µg/mL) |  | ≥ 100 |  |  | 
COc1ccc2nc(Oc3ccc(NC(=O)NC(C)C)cc3)sc2c1 [NZ-361, 1-{4-[(6-methoxy-1,3-benzothiazol-2-yl)oxy]phenyl}-3-(propan-2-yl)urea] |  | 3.2 (≈ 1.14 µg/mL) | ≥ 100 | ≥ 100 |  | 19 | 
CONC(=O)Cc1ccc(Oc2nc3ccc(F)cc3s2)cc1 [NZ-300, 2-{4-[(6-fluoro-1,3-benzothiazol-2-yl)oxy]phenyl}-N-methoxyacetamide] | 820 | 7.5 (≈ 2.49 µg/mL) | ≥ 100 | ≥ 100 |  |  | 
COC(=O)C(C)(C)Oc1ccc(Oc2cnc3cc(Cl)ccc3n2)cc1 [NZ-314, methyl 2-{4-[(6-chloroquinoxalin-2-yl)oxy]phenoxy}-2-methylpropanoate] | 17500 | 6 (≈ 2.24 µg/mL) | ≥ 100 | ≥ 100 |  |  | 
COC(=O)COc1ccc(Oc2nc3ccc(F)cc3s2)cc1 [NZ-303, methyl 2-{4-[(6-fluoro-1,3-benzothiazol-2-yl)oxy]phenoxy}acetate] |  | 4.5 |  | ≥ 100 |  | 50 | 
CC(C)NC(=O)Nc1ccc(Oc2nc3cc(Cl)c(Cl)cc3s2)cc1 [NZ-393, 1-{4-[(5,6-dichloro-1,3-benzothiazol-2-yl)oxy]phenyl}-3-(propan-2-yl)urea] | 5070 |  | ≥ 100 | ≥ 100 |  |  | 
CNC(=O)C(C)c1ccc(Oc2nc3ccc(F)cc3s2)cc1 (centres unmarked) [NZ-386, 2-{4-[(6-fluoro-1,3-benzothiazol-2-yl)oxy]phenyl}-N-methylpropanamide] | 620 | 1.1 to 2.1 (≈ 0.363 to 0.694 µg/mL) | ≥ 100 | ≥ 100 |  |  | 
CC(C(=O)O)c1ccc(Oc2nc3ccc(F)cc3s2)cc1 (centres unmarked) [NZ-329, 2-{4-[(6-fluoro-1,3-benzothiazol-2-yl)oxy]phenyl}propanoic acid] | 370 | 12 (≈ 3.81 µg/mL) | ≥ 100 | ≥ 100 |  |  | 
CC(C)NC(=O)C(C)c1ccc(Oc2nc3ccc(Cl)cc3s2)cc1 (centres unmarked) [NZ-327, 2-{4-[(6-chloro-1,3-benzothiazol-2-yl)oxy]phenyl}-N-(propan-2-yl)propanamide] | 300 | 12 (≈ 4.5 µg/mL) | ≥ 100 | ≥ 100 |  |  | 
CNC(=O)Cc1ccc(Oc2nc3ccc(Cl)cc3s2)cc1OC [NZ-392, 2-{4-[(6-chloro-1,3-benzothiazol-2-yl)oxy]-2-methoxyphenyl}-N-methylacetamide] | 7180 | 7.28 (≈ 2.64 µg/mL) | ≥ 100 | ≥ 100 |  |  | 
O=C(O)Cn1ccc(Oc2nc3ccc(Cl)cc3s2)cc1=O [NZ-397, 2-{4-[(6-chloro-1,3-benzothiazol-2-yl)oxy]-2-oxo-1,2-dihydropyridin-1-yl}acetic acid] | 450 |  | ≥ 100 | ≥ 100 |  |  | Not Active
CONC(=O)C(C)(C)Oc1ccc(Oc2cnc3cc(Cl)ccc3n2)cc1 [NZ-316, 2-{4-[(6-chloroquinoxalin-2-yl)oxy]phenoxy}-N-methoxy-2-methylpropanamide] |  | 6 (≈ 2.33 µg/mL) | ≥ 100 | ≥ 100 |  |  | 
CCOC(=O)[C@@H](C)Oc1ccc(Oc2nc3ccc(F)cc3s2)cc1 [NZ-251, ethyl (2R)-2-{4-[(6-fluoro-1,3-benzothiazol-2-yl)oxy]phenoxy}propanoate] |  | 0.23 (≈ 0.0831 µg/mL) | ≥ 100 | ≥ 100 |  |  | 
CONC(=O)C(O)c1ccc(Oc2nc3ccc(Cl)cc3s2)cc1 (centres unmarked) [NZ-338, 2-{4-[(6-chloro-1,3-benzothiazol-2-yl)oxy]phenyl}-2-hydroxy-N-methoxyacetamide] | 7200 | 25 (≈ 9.12 µg/mL) |  | ≥ 100 |  |  | 
COC(=O)C(O)c1ccc(Oc2nc3ccc(Cl)cc3s2)cc1 (centres unmarked) [NZ-336, methyl 2-{4-[(6-chloro-1,3-benzothiazol-2-yl)oxy]phenyl}-2-hydroxyacetate] |  | 12 (≈ 4.2 µg/mL) | 50 to 100 | 50 to 100 |  |  | 
CONC(=O)C(C)c1ccc(Oc2nc3ccc(OC)cc3s2)cc1 (centres unmarked) [NZ-335, N-methoxy-2-{4-[(6-methoxy-1,3-benzothiazol-2-yl)oxy]phenyl}propanamide] |  | 12 (≈ 4.3 µg/mL) | ≥ 100 | ≥ 100 |  |  | 
CC(C)NC(=O)Nc1ccc(Oc2cnc3cc(F)ccc3n2)cc1 [NZ-345, 1-{4-[(6-fluoroquinoxalin-2-yl)oxy]phenyl}-3-(propan-2-yl)urea] | 500 | 25 (≈ 8.51 µg/mL) |  | ≥ 100 |  |  | 
COC(=O)C(C)(C)Oc1ccc(Oc2nc3ccc(Cl)cc3s2)cc1 [NZ-317, methyl 2-{4-[(6-chloro-1,3-benzothiazol-2-yl)oxy]phenoxy}-2-methylpropanoate] |  | 6 (≈ 2.27 µg/mL) | ≥ 100 | ≥ 100 |  |  | 
Cc1ccc2nc(Oc3ccc(NC(=O)NC(C)C)cc3)sc2c1 [NZ-358, 1-{4-[(6-methyl-1,3-benzothiazol-2-yl)oxy]phenyl}-3-(propan-2-yl)urea] | 20000 | 5.8 (≈ 1.98 µg/mL) | ≥ 100 |  |  |  | 
CN(C)C(=O)Nc1ccc(Oc2cnc3cc(Cl)ccc3n2)cc1 [NZ-343, 1-{4-[(6-chloroquinoxalin-2-yl)oxy]phenyl}-3,3-dimethylurea] | 400 | 25 (≈ 8.57 µg/mL) |  | ≥ 100 |  |  | 
